In ChEMBL document CHEMBL1142165, “Influence on mitochondria and cytotoxicity of different antibiotics administered in high concentrations on primary human osteoblasts and cell lines” (Antimicrob Agents Chemother, 2007):
≈ marks a conversion by molar mass, not a printed value. Calls of active or inactive are those of the source. The calls are words filed in the database; no cut-off is given here.

Tests used:
[1] = test system: Osteoblast; assay: Increase in lactate production in primary human osteoblasts at 1 uM after 1 hr by ELISA; assay type: functional, cell-based
[2] = test system: MG-63; assay: Increase in lactate production in MG63 cells at 1 uM after 1 hr by ELISA; assay type: functional, cell-based; conditions: Homo sapiens
[3] = test system: Osteoblast; assay: Blocking of clindamycin-induced lactate production in primary human osteoblasts at 20 mM by ELISA; assay type: functional, cell-based
[4] = test system: Osteoblast; assay: Blocking of clindamycin-induced LDH release in primary human osteoblasts at 20mM by ELISA; assay type: functional, cell-based
[5] = test system: Osteoblast; assay: Increase in lactate production in primary human osteoblasts at 10 hrs by ELISA; assay type: functional
[6] = test system: Osteoblast; assay: Antiproliferative effect against primary human osteoblasts assessed as BrdU incorporation into DNA after 48 hrs after 48 hrs below 1 uM; assay type: functional, cell-based
[7] = test system: Osteoblast; assay: Inhibition of metabolic activity in primary human osteoblasts by MTT assay below 1 uM; assay type: functional, cell-based
[8] = test system: Osteoblast; assay: Increase in lactate production in primary human osteoblasts above 0.25 uM by ELISA; assay type: functional
[9] = test system: MG-63; assay: Increase in lactate production in MG63 cells at 50 nM by ELISA relative to control; assay type: functional, Homo sapiens
[10] = test system: MG-63; assay: Inhibition of metabolic activity in MG63 cells by MTT assay relative to control; assay type: functional, Homo sapiens
[11] = Cytotoxicity against primary human osteoblasts at 400 ug/ml assessed as LDH release after 24 hrs; conditions: osteoblast, at 400 µg/mL
[12] = Cytotoxicity against primary human osteoblasts at 100 ug/ml assessed as LDH release after 24 hrs; assay type: cell-based; conditions: osteoblast
[13] = Cytotoxicity against primary human osteoblasts at 200 ug/ml assessed as LDH release after 24 hrs; assay type: cell-based; conditions: osteoblast
[14] = Antiproliferative effect against primary human osteoblasts assessed as BrdU incorporation into DNA after 48 hrs; assay type: functional, cell-based; conditions: Osteoblast
[15] = test system: Osteoblast; assay: Inhibition of metabolic activity in primary human osteoblasts assessed as MTT reduction after 48 hrs; assay type: functional, cell-based
[16] = test system: MG-63; assay: Antiproliferative effect against MG63 cells assessed as BrdU incorporation into DNA after 48 hrs after 48 hrs; assay type: functional, cell-based; conditions: Homo sapiens, MG-63, 48 h
[17] = test system: MG-63; assay: Inhibition of metabolic activity in MG63 cells assessed as MTT reduction after 48 hrs; assay type: functional, cell-based; conditions: Homo sapiens, MG-63, 48 h
[18] = test system: HeLa; assay: Antiproliferative effect against HeLa cells after 48 hrs; assay type: functional, cell-based; conditions: Homo sapiens
[19] = test system: HeLa; assay: Inhibition of metabolic activity in HeLa cells assessed as MTT reduction after 48 hrs; assay type: functional, cell-based; conditions: Homo sapiens
[20] = test system: MG-63; assay: Increase in lactate production in MG63 cells at 400 ug/ml by ELISA relative to control; assay type: functional, Homo sapiens
[21] = test system: Osteoblast; assay: Increase in lactate production in primary human osteoblasts at 400 ug/ml by ELISA relative to control; assay type: functional
[22] = test system: Osteoblast; assay: Increase in lactate production in primary human osteoblasts at 1.5 ug/ml by ELISA; assay type: functional
[23] = test system: Osteoblast; assay: Antiproliferative effect against primary human osteoblasts in presence of 10% FCS; assay type: functional, cell-based
[24] = test system: Osteoblast; assay: Antiproliferative effect against primary human osteoblasts assessed as BrdU incorporation into DNA at 10 ug/ml after 48 hrs; assay type: functional, cell-based
[25] = test system: Osteoblast; assay: Increase in lactate production in primary human osteoblasts at 25 to 50 ug/ml by ELISA; assay type: functional
[26] = test system: Osteoblast; assay: Inhibition of metabolic activity in primary human osteoblasts in presence of 10% FCS; assay type: functional
[27] = test system: MG-63; assay: Decrease in lactate production in MG63 cells by ELISA; assay type: functional, cell-based; conditions: Homo sapiens
[28] = test system: HeLa; assay: Decrease in lactate production in HeLa cells by ELISA; assay type: functional, cell-based; conditions: Homo sapiens
[29] = test system: Osteoblast; assay: Increase in lactate production in primary human osteoblasts at 6 ug/ml by ELISA; assay type: functional
[30] = test system: Osteoblast; assay: Increase in lactate production in primary human osteoblasts at 190 ug/ml by ELISA; assay type: functional
[31] = test system: MG-63; assay: Decrease in lactate production in MG63 cells at 400 ug/ml by ELISA; assay type: functional, Homo sapiens; design: scale not given: the % may be the effect or the level left
[32] = test system: HeLa; assay: Decrease in lactate production in HeLa cells at 400 ug/ml by ELISA; assay type: functional, Homo sapiens; design: scale not given: the % may be the effect or the level left

| Molecule | Activity [11] [%] | IC20 [14] [µg/mL] | IC50 [14] [µg/mL] | IC20 [15] [µg/mL] | IC50 [15] [µg/mL] | IC20 [16] [µg/mL] | IC50 [16] [µg/mL] | IC20 [17] [µg/mL] | IC50 [17] [µg/mL] | IC20 [18] [µg/mL] | IC50 [18] [µg/mL] | IC20 [19] [µg/mL] | IC50 [19] [µg/mL] | also measured |
| --- | --- | --- | --- | --- | --- | --- | --- | --- | --- | --- | --- | --- | --- | --- |
| C=C(C)[C@H]1Cc2c(ccc3c2O[C@@H]2COc4cc(OC)c(OC)cc4[C@@H]2C3=O)O1 |  |  |  |  |  |  |  |  |  |  |  |  |  | Activity [1]: Active; Activity [2]: Active |
| Nc1ncnc2c1ncn2[C@@H]1O[C@H](CO)[C@@H](O)[C@H]1O |  |  |  |  |  |  |  |  |  |  |  |  |  | Activity [3]: Active; Activity [4]: Active |
| CCCCCC[C@H]1C(=O)O[C@H](C)[C@H](NC(=O)c2cccc(NC=O)c2O)C(=O)O[C@@H](C)[C@@H]1OC(=O)CC(C)C [ANTIMYCIN A] |  |  |  |  |  |  |  |  |  |  |  |  |  | Activity [5]: 14 µmol; Activity [6]: inactive; Activity [7]: inactive; Activity [8]: 150%; Activity [9]: 50%; Inhibition [10]: 70% |
| CC[C@H]1OC(=O)[C@H](C)[C@@H](O[C@H]2C[C@@](C)(OC)[C@@H](O)[C@H](C)O2)[C@H](C)[C@@H](O[C@@H]2O[C@H](C)C[C@H](N(C)C)[C@H]2O)[C@](C)(O)C[C@@H](C)CN(C)[C@H](C)[C@@H](O)[C@]1(C)O [AZITHROMYCIN] | 40 | 20 (≈ 26.7 µM) | 25 (≈ 33.4 µM) | 80 (≈ 107 µM) | 160 (≈ 214 µM) | 30 (≈ 40.1 µM) | 190 (≈ 254 µM) | 70 (≈ 93.5 µM) | 180 (≈ 240 µM) | 110 (≈ 147 µM) | 240 (≈ 320 µM) | 50 (≈ 66.8 µM) | 160 (≈ 214 µM) | Activity [12]: 20%; Activity [13]: 40%; Activity [20]: 30% |
| Cc1nnc(SCC2=C(C(=O)O)N3C(=O)[C@@H](NC(=O)Cn4cnnn4)[C@H]3SC2)s1 [CEFAZOLIN] |  | 380 (≈ 836 µM) | > 400 | > 400 | > 400 | 230 (≈ 506 µM) | > 400 | 400 (≈ 880 µM) | > 400 | 270 (≈ 594 µM) | > 400 | > 400 | > 400 |  |
| O=C(N[C@H](CO)[C@H](O)c1ccc([N+](=O)[O-])cc1)C(Cl)Cl [CHLORAMPHENICOL] |  | 60 (≈ 186 µM) | 230 (≈ 712 µM) | 260 (≈ 805 µM) | > 400 | 200 (≈ 619 µM) | > 400 | 110 (≈ 340 µM) | 400 (≈ 1240 µM) | 340 (≈ 1050 µM) | > 400 | 100 (≈ 309 µM) | 340 (≈ 1050 µM) | Activity [21]: 150%; Activity [22]: 12%; Activity [23]: Active |
| O=C(O)c1cn(C2CC2)c2cc(N3CCNCC3)c(F)cc2c1=O [CIPROFLOXACIN] |  | 70 (≈ 211 µM) | 170 (≈ 513 µM) | 260 (≈ 785 µM) | > 400 | 80 (≈ 241 µM) | 160 (≈ 483 µM) | 60 (≈ 181 µM) | 150 (≈ 453 µM) | 100 (≈ 302 µM) | 290 (≈ 875 µM) | 70 (≈ 211 µM) | 120 (≈ 362 µM) | Activity [24]: Active; Activity [25]: 10% |
| CCC[C@@H]1C[C@@H](C(=O)N[C@@H]([C@H]2O[C@H](SC)[C@H](O)[C@@H](O)[C@H]2O)[C@H](C)Cl)N(C)C1 [CLINDAMYCIN] | 10 | 40 (≈ 94.1 µM) | 150 (≈ 353 µM) | 340 (≈ 800 µM) | > 400 | 160 (≈ 376 µM) | 250 (≈ 588 µM) | 200 (≈ 471 µM) | > 400 | 230 (≈ 541 µM) | > 400 | 80 (≈ 188 µM) | 200 (≈ 471 µM) | IC20 [26]: 20 µg/mL; Activity [27]: Active; Activity [28]: Active; Activity [20]: 60%; Activity [23]: Active |
| CC[C@H]1OC(=O)[C@H](C)[C@@H](O[C@H]2C[C@@](C)(OC)[C@@H](O)[C@H](C)O2)[C@H](C)[C@@H](O[C@@H]2O[C@H](C)C[C@H](N(C)C)[C@H]2O)[C@](C)(O)C[C@@H](C)C(=O)[C@H](C)[C@@H](O)[C@]1(C)O [ERYTHROMYCIN] | 40 | 30 (≈ 40.9 µM) | 180 (≈ 245 µM) | 210 (≈ 286 µM) | > 400 | 130 (≈ 177 µM) | 300 (≈ 409 µM) | 180 (≈ 245 µM) | 310 (≈ 422 µM) | 210 (≈ 286 µM) | > 400 | 110 (≈ 150 µM) | 170 (≈ 232 µM) | IC20 [26]: 11 µg/mL; Activity [20]: 60%; Activity [23]: Active |
| CC(=O)NC[C@H]1CN(c2ccc(N3CCOCC3)c(F)c2)C(=O)O1 [LINEZOLID] |  | 240 (≈ 711 µM) | > 400 | > 400 | > 400 |  |  | 250 (≈ 741 µM) | > 400 |  |  | 300 (≈ 889 µM) | > 400 | Activity [21]: 120%; Activity [29]: 13% |
| COc1c(N2C[C@@H]3CCCN[C@@H]3C2)c(F)cc2c(=O)c(C(=O)O)cn(C3CC3)c12 [MOXIFLOXACIN] | 10 | 80 (≈ 199 µM) | 160 (≈ 399 µM) | 190 (≈ 473 µM) | > 400 | 110 (≈ 274 µM) | 230 (≈ 573 µM) | 30 (≈ 74.7 µM) | 170 (≈ 423 µM) | 90 (≈ 224 µM) | 320 (≈ 797 µM) | 40 (≈ 99.6 µM) | 110 (≈ 274 µM) | Activity [24]: Active; Activity [25]: 10% |
| CO[C@H]1/C=C/O[C@@]2(C)Oc3c(C)c(O)c4c(O)c(c(/C=N/N5CCN(C)CC5)c(O)c4c3C2=O)NC(=O)/C(C)=C\C=C\[C@H](C)[C@H](O)[C@@H](C)[C@@H](O)[C@@H](C)[C@H](OC(C)=O)[C@@H]1C [RIFAMPIN] |  | 30 (≈ 36.5 µM) | 130 (≈ 158 µM) |  |  | 120 (≈ 146 µM) | 240 (≈ 292 µM) |  |  | 180 (≈ 219 µM) | 270 (≈ 328 µM) |  |  | Activity [21]: 40% |
| CC[C@H]1OC(=O)[C@H](C)[C@@H](O[C@H]2C[C@@](C)(OC)[C@@H](O)[C@H](C)O2)[C@H](C)[C@@H](O[C@@H]2O[C@H](C)C[C@H](N(C)C)[C@H]2O)[C@](C)(O)C[C@@H](C)/C(=N\OCOCCOC)[C@H](C)[C@@H](O)[C@]1(C)O [ROXITHROMYCIN] | 40 | 20 (≈ 23.9 µM) | 70 (≈ 83.6 µM) | 110 (≈ 131 µM) | 210 (≈ 251 µM) | 50 (≈ 59.7 µM) | 180 (≈ 215 µM) | 50 (≈ 59.7 µM) | 110 (≈ 131 µM) | 100 (≈ 119 µM) | 160 (≈ 191 µM) | 30 (≈ 35.8 µM) | 90 (≈ 108 µM) | Activity [12]: 20%; Activity [13]: 30% |
| CN(C)[C@@H]1C(O)=C(C(N)=O)C(=O)[C@@]2(O)C(O)=C3C(=O)c4c(O)cccc4[C@@](C)(O)[C@H]3C[C@@H]12 [TETRACYCLINE] |  | 60 (≈ 135 µM) | 180 (≈ 405 µM) |  |  | 60 (≈ 135 µM) | 180 (≈ 405 µM) |  |  | 200 (≈ 450 µM) | > 400 |  |  | Activity [30]: 30%; Activity [31]: 50%; Activity [32]: 50% |
| GENTAMICIN |  |  |  |  |  |  |  |  |  |  |  |  |  | Activity [23]: inactive |
